Read-outs that look alike come from different tables or passages of the source.

Drawing on paper PMC8048981, “Cys–Cys and Cys–Lys Stapling of Unprotected Peptides Enabled by Hypervalent Iodine Reagents” (Angewandte Chemie (International Ed. in English), 2021), this text covers ring closure, conversion by HPLC and ring closure, isolated yield (% isolated yield) for three substances.

For series [1] the following is noted: the molecule shown is the open-chain precursor, scale: % relative absorbance at 210 nm vs linear peptide standard.
A short description of series [2]: Two-component Cys-Cys stapling with bis-hypervalent iodine reagents 8c-8e (3.0 equiv), DIPEA (2.5 equiv), overnight, preparative RP-HPLC. To be noted: the molecule shown is the open-chain precursor, DMF, 2.0 mM, 37.0 °C.

In turn, “Ac-QSQQTFC(S-C≡C-Si(iPr)2-C≡C-I[bis-CF3 benziodoxole])NLWRLLCQN-NH2” came in with a ring closure, conversion by HPLC in series [1] (31-membered ring, DMF, 1.0 mM, 37.0 °C, 4.0 h) of 30. Besides, the ring closure, isolated yield (% isolated yield) in series [2] (31-membered ring) was 13.

“Ac-YGGEAAREAC(S-C≡C-Si(iPr)2-C≡C-I[bis-CF3 benziodoxole])ARECAARE-NH2” registered a ring closure, conversion by HPLC in series [1] (22-membered ring) of 72. The ring closure, isolated yield (% isolated yield) in series [2] (22-membered ring) is 48.

The substance “Ac-ENPEC(S-C≡C-Si(iPr)2-C≡C-I[bis-CF3 benziodoxole])ILDCHVQRVM-NH2” returned a ring closure, conversion by HPLC in series [1] (22-membered ring, DMF, 1.0 mM, 37.0 °C, 4.0 h) of 98. Also, in series [2] (22-membered ring), the ring closure, isolated yield (% isolated yield) is 46.
